≈ marks a conversion by molar mass, not a printed value.
Experiments:
Assay in all cases: Broth dilution MIC
Type in all cases: cell-based
CNS GC 4547 = details: Mueller-Hinton broth, 18 hours at 35° C.
Experimental: (§1) The in vitro antibacterial activity of AA-896-A1, AA-896-A2, AA-896-A3, AA-896-A4, AA-896-A5, AA-896-B1, AA-896-B2, AA-896-B3, AA-896-B4, AA-896-B5, AA-896-B6, AA-896-B7, AA-896-C1, AA-896-C2, AA-896-C3, AA-896-C4, AA-896-D1, AA896-D2 and AA-896-D3 is determined against a spectrum of Gram-positive and Gram-negative bacteria by a standard broth dilution method. Serial dilution of the compounds are made in Mueller-Hinton broth and inoculated with a bacterial suspension. The lowest concentration of compound that inhibited the growth of a bacterial strain after 18 hours of incubation at 35° C. is reported as the minimal inhibitory concentration (MIC) for that strain.

P. aeruginosa GC 4532 = details: 18 hours at 35° C.; for Antimicrobial Activity (MIC): Mueller-Hinton broth
Experimental: as §1

CNS GC 4538 = details: Mueller-Hinton broth, 18 hours at 35° C.
Experimental: as §1

P. rettgeri GC 4530 = details: 18 hours at 35° C.; for Antimicrobial Activity (MIC): Mueller-Hinton broth
Experimental: as §1

CNS GC 4537 = details: Mueller-Hinton broth, 18 hours at 35° C.
Experimental: as §1

E. coli GC 2203 = details: 18 hours at 35° C.; for Antimicrobial Activity (MIC): Mueller-Hinton broth
Experimental: as §1

S. aureus GC 4536 = details: 18 hours at 35° C.; for Antimicrobial Activity (MIC): Mueller-Hinton broth
Experimental: as §1

P. aeruginosa GC 2214 = details: 18 hours at 35° C.; for Antimicrobial Activity (MIC): Mueller-Hinton broth
Experimental: as §1

E. coli GC 4560 = details: 18 hours at 35° C.; for Antimicrobial Activity (MIC): Mueller-Hinton broth
Experimental: as §1

E. coli GC 3226 = details: 18 hours at 35° C.; for Antimicrobial Activity (MIC): Mueller-Hinton broth
Experimental: as §1

M. morganii GC 4531 = details: 18 hours at 35° C.; for Antimicrobial Activity (MIC): Mueller-Hinton broth
Experimental: as §1

E. faecalis GC 842 = details: 18 hours at 35° C.; for Antimicrobial Activity (MIC): Mueller-Hinton broth
Experimental: as §1

E. faecalis GC 4555 = details: 18 hours at 35° C.; for Antimicrobial Activity (MIC): Mueller-Hinton broth
Experimental: as §1

E. cloacae GC 3783 = details: 18 hours at 35° C.; for Antimicrobial Activity (MIC): Mueller-Hinton broth
Experimental: as §1

S. aureus GC 2216 = details: 18 hours at 35° C.; for Antimicrobial Activity (MIC): Mueller-Hinton broth
Experimental: as §1

S. marcescens GC 4077 = details: 18 hours at 35° C.; for Antimicrobial Activity (MIC): Mueller-Hinton broth
Experimental: as §1

E. coli GC 4559 = details: 18 hours at 35° C.; for Antimicrobial Activity (MIC): Mueller-Hinton broth
Experimental: as §1

E. faecalis GC 2242 = details: 18 hours at 35° C.
Experimental: as §1

K. pneumoniae GC 4534 = details: 18 hours at 35° C.; for Antimicrobial Activity (MIC): Mueller-Hinton broth
Experimental: as §1

S. aureus GC 1131 = details: 18 hours at 35° C.; for Antimicrobial Activity (MIC): Mueller-Hinton broth
Experimental: as §1

E. faecalis GC 242 = details: Mueller-Hinton broth, 18 hours at 35° C.
Experimental: as §1

[1] = read-out: Antimicrobial Activity (MIC)

| Compound | Antimicrobial Activity (MIC) (CNS GC 4547) | Antimicrobial Activity (MIC) (P. aeruginosa GC 4532) | Antimicrobial Activity (MIC) (CNS GC 4538) | Antimicrobial Activity (MIC) (P. rettgeri GC 4530) | Antimicrobial Activity (MIC) (CNS GC 4537) | Antimicrobial Activity (MIC) (E. coli GC 2203) | Antimicrobial Activity (MIC) (S. aureus GC 4536) | Antimicrobial Activity (MIC) (E. faecalis GC 242) | Antimicrobial Activity (MIC) (P. aeruginosa GC 2214) | Antimicrobial Activity (MIC) (E. coli GC 4560) | Antimicrobial Activity (MIC) (E. coli GC 3226) | Antimicrobial Activity (MIC) (M. morganii GC 4531) | Antimicrobial Activity (MIC) (E. faecalis GC 842) | Antimicrobial Activity (MIC) (E. faecalis GC 4555) | Antimicrobial Activity (MIC) (E. cloacae GC 3783) | Antimicrobial Activity (MIC) (S. aureus GC 2216) | Antimicrobial Activity (MIC) (S. marcescens GC 4077) | Antimicrobial Activity (MIC) (E. coli GC 4559) | Antimicrobial Activity (MIC) (K. pneumoniae GC 4534) | Antimicrobial Activity (MIC) (S. aureus GC 1131) | other results |
| --- | --- | --- | --- | --- | --- | --- | --- | --- | --- | --- | --- | --- | --- | --- | --- | --- | --- | --- | --- | --- | --- |
| CC(C)C(NC(=O)NC(C(=O)NC(C(=O)NCCCNC(C(=O)O)C(O)C1OC(n2ccc(=O)[nH]c2=O)C(O)C1O)C(OC(=O)CCCCCCCCCCCCN(O)C(=N)N)C(C)C)C1CCNC(=N)N1)C(=O)O [AA-896-A5, 6-[[3-[3-[[13-(Carbamimidoylhydroxyamino)tridecanoyl]oxy]-2-[2-[[(1-carboxy-2-methyl-propyl)carbamoyl]amino]-2-(hexahydro-2-iminopyrimidin-4-yl)acetamido]-4-methyl-pentanamido]propyl]amino]-1,6-dideoxy-1-(3,4-dihydro-2,4-dioxopyrimidin-1(2H)-yl)-β-D-heptofuranuronic acid] |  |  |  |  |  |  |  |  |  |  |  |  |  |  |  |  |  |  |  |  | MIC (CNS GC 4547; [1]): 16 µg/mL (≈ 15 µM); MIC (P. aeruginosa GC 4532; Pseudomonas aeruginosa, GC4532, Mueller-Hinton broth, read-out: Antimicrobial Activity (MIC)): 32 µg/mL (≈ 29.9 µM); MIC (CNS GC 4538; [1]): 4 µg/mL (≈ 3.74 µM); MIC (P. rettgeri GC 4530; Providencia rettgeri, GC4530, Mueller-Hinton broth, read-out: Antimicrobial Activity (MIC)): > 64 µg/mL; MIC (CNS GC 4537; [1]): 16 µg/mL (≈ 15 µM); MIC (E. coli GC 2203; Escherichia coli, GC2203, Mueller-Hinton broth, read-out: Antimicrobial Activity (MIC)): 16 µg/mL (≈ 15 µM); MIC (S. aureus GC 4536; Staphylococcus aureus, GC4536, Mueller-Hinton broth, read-out: Antimicrobial Activity (MIC)): 8 µg/mL (≈ 7.48 µM); MIC (P. aeruginosa GC 2214; Pseudomonas aeruginosa, GC2214, Mueller-Hinton broth, read-out: Antimicrobial Activity (MIC)): 32 µg/mL (≈ 29.9 µM); MIC (E. coli GC 4560; Escherichia coli, GC4560, Mueller-Hinton broth, read-out: Antimicrobial Activity (MIC)): ≤ 0.06 µg/mL; MIC (E. coli GC 3226; Escherichia coli, GC3226, Mueller-Hinton broth, read-out: Antimicrobial Activity (MIC)): 16 µg/mL (≈ 15 µM); MIC (M. morganii GC 4531; Morganella morganii, GC4531, Mueller-Hinton broth, read-out: Antimicrobial Activity (MIC)): > 64 µg/mL; MIC (E. faecalis GC 842; Enterococcus faecalis, GC842, Mueller-Hinton broth, read-out: Antimicrobial Activity (MIC)): > 64 µg/mL; MIC (E. faecalis GC 4555; Enterococcus faecalis, GC4555, Mueller-Hinton broth, read-out: Antimicrobial Activity (MIC)): 32 µg/mL (≈ 29.9 µM); MIC (E. cloacae GC 3783; Enterobacter cloacae, GC3783, Mueller-Hinton broth, read-out: Antimicrobial Activity (MIC)): 1 µg/mL (≈ 0.934 µM); MIC (S. aureus GC 2216; Staphylococcus aureus, GC2216, Mueller-Hinton broth, read-out: Antimicrobial Activity (MIC)): 16 µg/mL (≈ 15 µM); MIC (S. marcescens GC 4077; Serratia marcescens, GC4077, Mueller-Hinton broth, read-out: Antimicrobial Activity (MIC)): > 64 µg/mL; MIC (E. coli GC 4559; Escherichia coli, GC4559, Mueller-Hinton broth, read-out: Antimicrobial Activity (MIC)): 4 µg/mL (≈ 3.74 µM); MIC (E. faecalis GC 2242; Enterococcus faecalis, GC2242, Mueller-Hinton broth, read-out: Antimicrobial Activity (MIC)): > 64 µg/mL; MIC (K. pneumoniae GC 4534; Klebsiella pneumoniae, GC4534, Mueller-Hinton broth, read-out: Antimicrobial Activity (MIC)): 8 µg/mL (≈ 7.48 µM); MIC (S. aureus GC 1131; Staphylococcus aureus, GC1131, Mueller-Hinton broth, read-out: Antimicrobial Activity (MIC)): 16 µg/mL (≈ 15 µM) |
| 5-O-[5-Amino-5-deoxy-β-D-ribofuranosyl]-6-[[3-[3-[[13-(carbamimidoylhydroxyamino)-tridecanoyl]oxy]-2-[2-[[(1-carboxy-2-methylpropyl)carbamoyl]amino]-2-(hexahydro-2-iminopyrimidin-4-yl)acetamido]-4-methylpentanamido]propyl]amino]-1,6-dideoxy-1-(3,4-dihydro-2,4-dioxopyrimidin-1(2H)-yl)-β-D-heptofuranuronic acid [AA-896-A4] | 8 µg/mL | 32 µg/mL | 2 µg/mL | >32 µg/mL | 4 µg/mL | 16 µg/mL | 8 µg/mL | 32 µg/mL | 32 µg/mL | 0.12 µg/mL | 8 µg/mL | >32 µg/mL | 32 µg/mL | 32 µg/mL | 1 µg/mL | 4 µg/mL | >32 µg/mL | 32 µg/mL | >32 µg/mL | 8 µg/mL |  |
| CC(C)C(NC(=O)NC(C(=O)NC(C(=O)NCCCNC(C(=O)O)C(OC1CC(O)C(CN)O1)C1OC(n2ccc(=O)[nH]c2=O)C(O)C1O)C(O)C(C)C)C1CCNC(=N)N1)C(=O)O [AA-896-C3, 5-O-[5-Amino-2,5-dideoxy-β-D-ribofuranosyl]-6-[[3-[2-[2-[[(1-carboxy-2-methylpropyl)-carbamoyl]amino]-2-(hexahydro-2-iminopyrimidin-4-yl)acetamido]-3-hydroxy-4-methyl-pentanamido]propyl]amino]-1,6-dideoxy-1-(3,4-dihydro-2,4-dioxopyrimidin-1(2H)-yl)-β-D-heptofuranuronic acid] | >32 µg/mL | 32 µg/mL | >32 µg/mL | >32 µg/mL | >32 µg/mL | 16 µg/mL | >32 µg/mL |  | 16 µg/mL | 0.5 µg/mL | 32 µg/mL | >32 µg/mL | >32 µg/mL | >32 µg/mL | 8 µg/mL | >32 µg/mL | >32 µg/mL | 32 µg/mL | >32 µg/mL | >32 µg/mL | Antimicrobial Activity (MIC) (E. faecalis GC 2242; Mueller-Hinton broth): >32 µg/mL |
| CCC(C)CCCCC(=O)OC(C(C)C)C(NC(=O)C(NC(=O)NC(C(=O)O)C(C)C)C1CCNC(=N)N1)C(=O)NCCCNC(C(=O)O)C(O[C@@H]1O[C@H](CN)[C@@H](O)[C@H]1OC)C1OC(n2ccc(=O)[nH]c2=O)C(O)C1O (stereo partly drawn) [AA-896-B3, 5-O-[5-Amino-5-deoxy-2-O-methyl-β-D-ribofuranosyl]-6-[[3-[2-[2-[[(1-carboxy-2-methyl-propyl)carbamoyl]amino]-2-(hexahydro-2-iminopyrimidin-4-yl)acetamido]-4-methyl-3-[(6-methyloctanoyl)oxy]pentanamido]propyl]amino]-1,6-dideoxy-1-(3,4-dihydro-2,4-dioxopyrimidin-1(2H)-yl)-β-D-heptofuranuronic acid] | >32 µg/mL | >32 µg/mL | >32 µg/mL | >32 µg/mL | >32 µg/mL | >32 µg/mL | >32 µg/mL | >32 µg/mL | >32 µg/mL | 0.06 µg/mL | 32 µg/mL | >32 µg/mL | >32 µg/mL | >32 µg/mL | 16 µg/mL | >32 µg/mL | >32 µg/mL | >32 µg/mL | >32 µg/mL | >32 µg/mL |  |

Reference: US7078195B2, “Antibiotics AA-896” (Wyeth Holdings Corporation, priority 2001, dated 2006)
